# Source: patent US20210379062A1, “The use of a H3R inverse agonist for the treatment of excessive daytime sleepiness associated with parkinson's disease (PD)” (Novartis AG, priority 2018, published 2021)
# Where two headings read alike, the source gives them in different places.
# How the values were obtained:
# H3 receptor = assay: Ex vivo receptor occupancy assay in rat frontal cortex; conditions: rats; for dose that resulted in H3 receptor occupancy of 80-90%: oral dosing, 1 h after compound administration
# Experimental: Male Sprague-Dawley rats (from Shanghai SLAC Laboratory Animal CO. LTD) at the age of 5-6 weeks were used. The animals were housed in a temperature and humidity-controlled environment on a 12 h light/dark cycle with food and water available ad libitum. All the procedures were approved by Institutional Animal Care and Use Committee of Chempartner Co., LTD (IACUC Protocol NO: A998HL0076).
# Compounds were dissolved in 50 mM citrate buffer (pH 3.5), or saline. The compound was then diluted stepwise to the final concentration with vehicle. Animals were dosed by p.o. or i.v. in 1 ml/kg bodyweight.
# At each time point, rats were decapitated immediately. Intact brain was removed, immersed and washed in pre-cooled saline. After drying with filter paper, frontal cortex was dissected with a double-blade with an about 30° angle starting at ⅓ of anterior rat brain (weight of most brain tissues around 70±10 mg). Brain tissue was transferred into a pre-weighed tube with homogenizer beads. The tubes were weighed again and the tissue net weight was recorded. Tissue sampling was done on ice with intervals of 1 min. Then, 50 mM HEPES (Gibco® by Life Technologies) buffer were added (equivalent to 3.75 μl/mg tissue weight) followed by homogenization (frequency 30/sec for 20 sec, TissueLyser, Quiagen).
# The crude homogenate samples of rat frontal cortex were used to measure H3 receptor binding as described above with [^3H]—N-α-methylhistamine as radioligand. The protein concentration of each sample was determined by Pierce BCA Protein Assay Kit (Thermo).
# The cortical homogenate was added to a 96-well plate containing [^3H]—N-α-methylhistamine (0.1 nM), in a volume of 0.2 ml (final protein concentration 4 μg/μl), incubated at 28° C. for 15 min and the reaction was stopped by rapid filtration using a filtration plate (Millipore multiscreen GF/B plate). The filters were washed three times with ice-cold wash buffer (50 mM Tris, pH 7.5) and 250 μl of Microscint-40 were added followed by determination of the bound radiolabel with a Wallac Microbeta Trilux 2450 (Perkin Elmer). Nonspecific binding was determined in the presence of 10 μM thioperamide. Each data point was obtained from a total of at least four animals. The inhibition of specific [^3H]NAMH binding, calculated as relative to vehicle-treated samples, was determined to provide an indication of receptor occupancy by the compound. The dose-dependent % RO and time course were analyzed using GraphPad Prism. The dose response was fit using GraphPad Prism: log(inhibitor) vs. response with variable slope.
# [1] = target: T1, Human histamine H3 receptor (Homo sapiens, UniProt Q9Y5N1); assay: Radioligand binding assay with [3H]-N-α-methylhistamine; conditions: human recombinant H3R, 1.0 nM [3H]-N-α-methylhistamine, Cheng-Prusoff
# T1 construct: purchased PerkinElmer
# T1 sequence (Q9Y5N1 whole entry): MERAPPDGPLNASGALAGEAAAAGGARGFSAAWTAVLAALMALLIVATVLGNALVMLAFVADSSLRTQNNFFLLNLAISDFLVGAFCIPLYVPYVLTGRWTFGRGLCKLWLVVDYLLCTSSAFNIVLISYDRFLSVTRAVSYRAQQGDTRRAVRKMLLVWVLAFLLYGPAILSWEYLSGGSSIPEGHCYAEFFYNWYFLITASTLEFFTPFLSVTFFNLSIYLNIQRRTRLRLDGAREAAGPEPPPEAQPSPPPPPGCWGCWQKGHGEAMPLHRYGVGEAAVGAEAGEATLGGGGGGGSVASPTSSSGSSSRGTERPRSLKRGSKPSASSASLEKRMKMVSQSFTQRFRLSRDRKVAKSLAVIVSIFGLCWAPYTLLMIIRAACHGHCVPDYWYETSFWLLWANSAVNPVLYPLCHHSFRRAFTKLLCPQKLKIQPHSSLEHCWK
# Experimental: Human histamine H3 receptor membrane (PerkinElmer) were incubated with 1.0 nM [^3H]—N-α-methylhistamine (PerkinElmer) in the presence or absence of increasing concentrations of ligands for H3 receptor competition binding. The binding incubations were in a final volume of 0.1 ml buffer (50 mMTris pH 7.5, 5 mM MgCl2) at 28° C. for 120 minutes. Thioperamide (10 μM) was used to define non-specific binding.
# All binding reactions were terminated by transferring 70 μl binding reaction from the reaction plate into filtration plates (Zeba 96-well Spin Desalting Plates, Thermo Scientific), followed by centrifugation at 1000 g for 2 min to collect the protein with bound radioligand. 200 μl of microscint-40 were added to determine the bound radiolabel by a Wallac Microbeta Trilux 2450 (Perkin Elmer). For all radioligand competition binding assays, IC50 values and Hill slopes were determined by GraphPad Prism: log(inhibitor) vs. response with variable slope. Ki was calculated using the equation in Biochem. Pharmacol. 1973. 22 (23), 3099-3108, from Cheng and Prusoff: Ki=IC50/{1+([radioligand]/Kd)}.
# Rat brain and plasma PK = assay type: in vivo; conditions: 10 mg/kg oral, rats
# [2] = test system: tele-methylhistamine (tMeHA); assay: Ex vivo PD determination: brain tele-methylhistamine time course in rats; design: species or system rat; conditions: 10 mg/kg oral; for effect on tMeHA levels: brain
# Experimental: Male Sprague-Dawley rats (Shanghai SLAC Laboratory Animal Co. LTD) of 6-7 weeks age were used. Animals were housed in a temperature and humidity-controlled environment on a 12 h light/dark. All animals had free access to food and water. All procedures were approved by Institutional Animal Care and Use Committee of ChemPartner Co., LTD (IACUC Protocol NO: A998HL0002).
# For bioanalysis of brain tissue tele-methylhistamine samples were further processed.
# One aliquot of the stock solution was diluted using ethanol/phosphate buffer pH 7.4 (85:15, v/v) to achieve a series working solutions. The brain homogenate was centrifuged at 12000 rpm for 5 min at 4° C. Then 10 μL supernatant of the brain homogenate sample was added to 60 μL internal standard (d3-1-methyl-histamine, 20 ng/mL). The mixture was vortexed for 2 min and centrifuged at 12000 rpm for 5 min at 4° C. Finally, 60 μL supernatant was added and 3 μL supernatant was injected into LC-MS/MS for analysis (Agilent 6410, triple quadrupole mass spectrometer, Mobile phase A: H2O— 0.1% NH3, Mobile phase B: methanol— 0.1% NH3, Column: Ultimate XB-C18 (2.1×50 mm, 5 μm, Flow rate: 0.45 mL/min, temperature: 40° C.).
# [3] = cited from earlier work
# [4] = 100-200 mg/day, two weeks treatment, excessive sleepiness associated with PD
SMILES,"RO (H3 receptor; 10 mg/kg oral, 7 h) [%]","initial RO (H3 receptor; 10 mg/kg oral, time not given) [%]",dose that resulted in H3 receptor occupancy of 80-90% (H3 receptor) [mg/kg],Ki [1] [nM],"rate of exposure-decline in brain, relative to Compound (I) (Rat brain and plasma PK)",total brain exposure (Rat brain and plasma PK),brain exposure (Rat brain and plasma PK; 8 h time point),time at which tMeHA increase is first observed [2] [h],tMeHA level at 8 h ([2]; 8 h),effect on tMeHA levels [2],"Epworth Sleeping Scale scores [3, 4]","sleep latency in the Maintenance of Wakefulness Test [3, 4]",Epworth Sleeping Scale scores ([3]; 200-400 mg/day for four weeks),"initial RO (H3 receptor; 300 mg/kg oral, 0.5 h) [%]","RO (H3 receptor; 300 mg/kg oral, 8 h after compound administration) [%]"
"O=C(c1ccc(CN2CCOCC2)cc1)N1CCN(C2CC2)CC1 [bavisant, reference compound]",37,90,10,102,much slower,very high,high,1,stayed elevated,delayed increase,–,–,–,–,–
"NC(=O)C[S+]([O-])C(c1ccccc1)c1ccccc1 (stereo not drawn) [modafinil, 2-(benzhydrylsulfinyl)acetamide]",–,–,–,–,–,–,–,–,–,–,improved,but not sleep latency,no improvement,–,–
"Clc1ccc(CCCOCCCN2CCCCC2)cc1 [pitolisant, reference compound]",–,–,300,–,–,very low,–,–,–,no increase,–,–,–,~90,40
